Assay results from patent US20250144250A1, “PH-SENSITIVE FLUOROPHORES” (The General Hospital Corporation, priority 2022, published 2025).

Tested on: peritoneal dissemination of ID8 ovarian cancer
Assay: Intraoperative NIR imaging in mouse model of peritoneal dissemination of ovarian cancer
Format: in vivo, mice
Conditions: for TBR (tumor to background ratio): against normal pancreas
Protocol: Intraoperative NIR imaging: Seven-week-old female C57BL/6 mice were purchased from the Jackson Laboratory (Bar Harbor, ME) and housed in an AAALAC-certified facility at Massachusetts General Hospital (MGH). All animal procedures were performed in accordance with the Public Health Service Policy on Humane Care of Laboratory Animals and approved by the MGH IACUC (protocol #2016N000136). To establish a murine model of peritoneal dissemination of ovarian cancer, mice were injected intraperitoneally with 5×10^6 cells in 100 μL saline. In this model, macroscopic metastatic intraperitoneal nodules appear reproducibly at approximately 90 d. To perform NIR fluorescence imaging, mice were fed chlorophyll-free mouse chow (VWR International) at least 5 d prior to imaging to minimize autofluorescence. For in vivo imaging of ovarian cancer, animals were anesthetized with 100 mg/kg ketamine and 10 mg/kg xylazine subcutaneously (Webster Veterinary, Fort Devens, MA). Following anesthesia, a midline incision was made to expose the abdominal cavity. To evaluate in vivo tumor targetability of the NIR fluorophores, mice were intraperitoneally injected with 20 nmol of ovarian cancer-targeted NIR fluorophores dissolved in 100 μL saline containing 5 wt/v % BSA. The abdominal cavity was opened with a midline incision, and NIR images were obtained over 4 h of the exposed abdominal cavity. For NIR fluorescence imaging, we used a custom-built real-time intraoperative NIR imaging system as described previously. In this study, a 760 nm excitation was used at a fluence rate of 4 mW/cm^2, with white light (400-650 nm; 40,000 lux). Color and NIR fluorescence images were acquired simultaneously with custom software at rates up to 15 Hz over a 10 cm diameter field-of-view (FOV). Pseudo-colored lime green was used for NIR fluorescence in the color-NIR merged images. The imaging system was positioned at a distance of 9 inches from the surgical field. For all real-time intraoperative imaging, a standardized imaging protocol was used during and after the operation. General FOV (5 cm in dia.) was used to include the pancreas, head, duodenum, liver, and kidneys of a mouse, while closeup FOV (3.3 cm in dia.) included the pancreas, head, and duodenum. Color and NIR fluorescence images were taken simultaneously. Real-time fluorescence signal in tumors (Tu) and tumor-to-background ratio (TBR) compared to neighboring tissue was obtained over the period of imaging, and the fluorescence intensity was plotted to evaluate in vivo molecular biodistribution and clearance. All images were obtained using the same exposure time. Mice were euthanized 4 h post-injection with CO2 inhalation, and tumor tissues and the major organs, including the heart, lung, liver, pancreas, spleen, kidney, duodenum, intestine, muscle, and adnexa, were removed for ex vivo imaging and histological examination. NIR signals from resected tissues were imaged using the FLARE imaging system. The TBR was calculated using the same formula, with IT representing the intensity of the tumor tissue and IB representing the signal intensity of the surrounding tissue over the imaging period.
Evaluation of in vivo efficacy of NIR fluorophores for fluorescence-guided surgery (FGS): Having confirmed the pH sensitivity and tumor cell uptake of PH08 in vitro, we next evaluated the in vivo performance of the pH sensing NIR fluorophores in a mouse model of ovarian cancer. […] In this model, approximately 12 week post-peritoneal injection of ID8 cells, numerous nodules were observed on the peritoneum. These small nodules (<1 mm) are extremely difficult to localize and visualize in the surgical field. Thus, this model was suitable to test the performance of this fluorophore. For imaging of ovarian cancer, 20 nmol of PH08 was administered intraperitoneally. The abdominal cavity was then imaged on the custom-built imaging system. […]

Compound	TBR (tumor to background ratio)	TBR in words (up to 4 h after administration, compared with PH08)	time to clear visualization of small tumors after injection (20 nmol intraperitoneally) [min]	TBR against surrounding normal tissues and other major organs (20 nmol intraperitoneally, within 10 min of injection)	retention / preservation of signals (post-topical application)	TBR (up to 4 h after injection)	fluorescence recovery / increase time (upon topical application) [min]
CCN1/C(=C/C=C2\CCCC(/C=C/C3=[N+](CC)c4ccccc4C3(C)C)=C2c2ccccc2)C(C)(C)c2ccccc21 [PH03, 1-Ethyl-2-((E)-2-((E)-6-(2-((E)-1-ethyl-3,3-dimethylindolin-2-ylidene)ethylidene)-3,4,5,6-tetrahydro-[1,1′-biphenyl]-2-yl)vinyl)-3,3-dimethyl-3H-indol-1-ium iodide]	++ (++, 2-3)	smaller TBRs					
CCN1/C(=C/C=C2\CCCC(/C=C/C3=[N+](CC)c4ccccc4C3(C)C)=C2N2CCNCC2)C(C)(C)c2ccccc21 [PH08]	+++ (+++, 3-5)		≤ 10	~6	at least 4 h	> 5.5	< 10
